The target of one test is T1, FGFR1 (Homo sapiens, UniProt P11362).
T1 construct: made in house; host or cells: E. coli (BL21-derived), T7 phage
Nature of the test: Kinase binding assay (kinase-tagged T7 phage, affinity beads, qPCR), Kd. The conditions noted are these: read-out: FGFR1 (Kd nM). The essentials:
(§1)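 Phage-tagged kinase capture on small-molecule affinity resin, compound competition, qPCR quantitation; Kd from Levenberg-Marquardt Hill fit.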

The target in another test is T2, FGFR2 (Homo sapiens, UniProt P21802).
T2 construct: made in house; host or cells: E. coli (BL21-derived), T7 phage
T2 sequence (P21802 22-821): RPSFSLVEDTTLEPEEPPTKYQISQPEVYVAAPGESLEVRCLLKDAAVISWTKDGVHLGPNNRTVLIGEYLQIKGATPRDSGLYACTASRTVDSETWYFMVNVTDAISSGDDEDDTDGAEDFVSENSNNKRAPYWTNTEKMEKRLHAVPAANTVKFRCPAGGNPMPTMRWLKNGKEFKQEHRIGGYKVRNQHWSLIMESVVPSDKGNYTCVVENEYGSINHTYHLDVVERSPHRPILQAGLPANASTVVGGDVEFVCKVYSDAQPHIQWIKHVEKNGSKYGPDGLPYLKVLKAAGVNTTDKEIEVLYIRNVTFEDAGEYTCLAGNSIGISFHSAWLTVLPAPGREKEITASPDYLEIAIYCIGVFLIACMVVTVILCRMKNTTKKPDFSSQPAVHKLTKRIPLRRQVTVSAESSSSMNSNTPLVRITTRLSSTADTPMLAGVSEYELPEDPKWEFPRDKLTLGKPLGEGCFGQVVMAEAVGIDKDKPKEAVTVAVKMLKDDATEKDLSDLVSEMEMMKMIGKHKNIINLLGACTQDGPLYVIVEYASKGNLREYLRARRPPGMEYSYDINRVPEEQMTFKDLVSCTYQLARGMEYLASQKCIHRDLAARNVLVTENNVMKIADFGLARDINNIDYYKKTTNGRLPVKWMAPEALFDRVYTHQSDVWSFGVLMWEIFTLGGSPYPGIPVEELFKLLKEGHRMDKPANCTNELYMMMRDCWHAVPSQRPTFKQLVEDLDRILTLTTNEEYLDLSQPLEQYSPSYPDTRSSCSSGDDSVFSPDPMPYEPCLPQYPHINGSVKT
The test is described as above. The conditions noted are these: read-out: FGFR2 (Kd nM). The essentials:
as §1

Another test addresses T3, FGFR3 (Homo sapiens, UniProt P22607).
T3 construct: made in house; host or cells: E. coli (BL21-derived), T7 phage
The description is as above. The conditions noted are these: read-out: FGFR3 (Kd nM). The essentials: as §1

The target in the next test is T4, FGFR3 (V555M) (Homo sapiens, UniProt P22607, V555M).
T4 construct: made in house; host or cells: E. coli (BL21-derived), T7 phage
T4 sequence (P22607 23-806 V555M): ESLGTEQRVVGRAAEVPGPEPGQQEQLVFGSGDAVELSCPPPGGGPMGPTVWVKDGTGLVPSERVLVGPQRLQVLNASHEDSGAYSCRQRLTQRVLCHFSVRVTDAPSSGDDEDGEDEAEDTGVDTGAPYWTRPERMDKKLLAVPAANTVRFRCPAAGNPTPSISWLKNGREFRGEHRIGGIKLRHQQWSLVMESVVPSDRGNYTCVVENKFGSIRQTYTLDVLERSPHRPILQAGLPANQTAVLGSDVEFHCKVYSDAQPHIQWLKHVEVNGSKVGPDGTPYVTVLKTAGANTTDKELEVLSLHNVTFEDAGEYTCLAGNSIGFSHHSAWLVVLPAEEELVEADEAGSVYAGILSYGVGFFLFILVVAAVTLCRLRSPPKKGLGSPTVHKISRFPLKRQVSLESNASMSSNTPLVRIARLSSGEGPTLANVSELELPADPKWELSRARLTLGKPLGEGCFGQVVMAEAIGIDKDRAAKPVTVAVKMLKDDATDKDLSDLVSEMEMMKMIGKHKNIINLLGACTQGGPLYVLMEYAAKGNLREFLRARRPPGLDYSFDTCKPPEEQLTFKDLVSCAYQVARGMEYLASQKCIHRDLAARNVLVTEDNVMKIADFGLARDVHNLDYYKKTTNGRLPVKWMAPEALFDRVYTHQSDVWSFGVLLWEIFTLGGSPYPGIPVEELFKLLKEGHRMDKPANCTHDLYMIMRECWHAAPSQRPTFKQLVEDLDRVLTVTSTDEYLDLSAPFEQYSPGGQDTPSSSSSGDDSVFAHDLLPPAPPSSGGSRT
The description is as above. The conditions noted are these: V555M mutant; read-out: FGFR3 (V555M) (Kd nM). The essentials: as §1

The target in another test is T5, FGFR4 (Homo sapiens, UniProt P22455).
T5 construct: made in house; host or cells: E. coli (BL21-derived), T7 phage
T5 sequence (P22455 22-802): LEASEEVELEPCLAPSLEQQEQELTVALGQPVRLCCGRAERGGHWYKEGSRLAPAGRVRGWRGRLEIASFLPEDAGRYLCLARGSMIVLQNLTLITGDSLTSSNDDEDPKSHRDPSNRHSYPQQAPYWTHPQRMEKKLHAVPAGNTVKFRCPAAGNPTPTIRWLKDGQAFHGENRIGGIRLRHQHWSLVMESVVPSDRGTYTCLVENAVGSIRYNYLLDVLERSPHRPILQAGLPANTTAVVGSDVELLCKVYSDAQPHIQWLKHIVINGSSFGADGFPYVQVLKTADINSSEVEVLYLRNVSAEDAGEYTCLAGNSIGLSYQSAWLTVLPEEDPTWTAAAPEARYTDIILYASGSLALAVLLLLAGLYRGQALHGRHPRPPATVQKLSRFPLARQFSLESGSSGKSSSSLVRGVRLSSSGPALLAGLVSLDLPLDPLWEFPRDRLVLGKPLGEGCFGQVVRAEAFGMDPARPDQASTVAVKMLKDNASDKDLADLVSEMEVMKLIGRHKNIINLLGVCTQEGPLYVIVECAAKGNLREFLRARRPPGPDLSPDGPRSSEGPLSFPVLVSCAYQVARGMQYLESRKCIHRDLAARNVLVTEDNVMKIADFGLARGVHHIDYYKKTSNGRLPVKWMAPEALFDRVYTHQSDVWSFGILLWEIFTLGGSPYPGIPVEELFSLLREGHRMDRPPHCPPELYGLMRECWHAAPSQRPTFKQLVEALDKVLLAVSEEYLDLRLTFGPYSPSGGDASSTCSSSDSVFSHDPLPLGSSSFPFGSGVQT
Described as above. The conditions noted are these: read-out: FGFR4 (Kd nM). The essentials: as §1

The subject of test [1] is KATO-III cell line (FGFR2 amplification). Nature of the test: Cancer cell line cell viability assay (Cell Titer-Glo), 72 hr. Type of test: cell-based. The conditions noted are these: Homo sapiens, KATO III. The essentials: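 5,000-20,000 cells/well o/n; cpd 9-pt 4x dil from 3 μM, n=3; 37° C/5% CO2; CTG 2.0 lumi; % DMSO ctrl; 4PL IC50.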
For orientation: Cellular ATP, detected with luciferase, serves as a proxy for viable cell number.

Test [2] has as its system KG-1 cell line (FGFR 1-fusion). Described as above. The conditions noted are these: Homo sapiens, KG-1, KG-1 cell line (FGFR1-fusion). The format is cell-based. The essentials:
(§2)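 Luminescent ATP read-out (Cell Titer-Glo 2.0) after compound exposure, normalised to DMSO-only wells. Dosing: 9 concentrations, 4-fold steps, top 3 μM, triplicates. IC50 derived by log(inhibitor) vs. response 4-parameter fit.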

Test [3] concerns RT112/84 cell line (FGFR3-fusion). The test is described as above. The conditions noted are these: Homo sapiens, RT112/84, RT112/84 cell line (FGFR3-fusion). The format is cell-based. The essentials: as §2
Test [4] deals with HuH7 cell line (FGF19 amplification). In words: Cancer cell line cell viability assay (Cell Titer-Glo), 120 hr. The format is cell-based. The conditions noted are these: Homo sapiens, Huh-7. The essentials:
as §2

T3 sequence (P22607 23-806): as the sequence (P22607 23-806 V555M) above, with M533V counted along it
T1 sequence (P11362 22-822): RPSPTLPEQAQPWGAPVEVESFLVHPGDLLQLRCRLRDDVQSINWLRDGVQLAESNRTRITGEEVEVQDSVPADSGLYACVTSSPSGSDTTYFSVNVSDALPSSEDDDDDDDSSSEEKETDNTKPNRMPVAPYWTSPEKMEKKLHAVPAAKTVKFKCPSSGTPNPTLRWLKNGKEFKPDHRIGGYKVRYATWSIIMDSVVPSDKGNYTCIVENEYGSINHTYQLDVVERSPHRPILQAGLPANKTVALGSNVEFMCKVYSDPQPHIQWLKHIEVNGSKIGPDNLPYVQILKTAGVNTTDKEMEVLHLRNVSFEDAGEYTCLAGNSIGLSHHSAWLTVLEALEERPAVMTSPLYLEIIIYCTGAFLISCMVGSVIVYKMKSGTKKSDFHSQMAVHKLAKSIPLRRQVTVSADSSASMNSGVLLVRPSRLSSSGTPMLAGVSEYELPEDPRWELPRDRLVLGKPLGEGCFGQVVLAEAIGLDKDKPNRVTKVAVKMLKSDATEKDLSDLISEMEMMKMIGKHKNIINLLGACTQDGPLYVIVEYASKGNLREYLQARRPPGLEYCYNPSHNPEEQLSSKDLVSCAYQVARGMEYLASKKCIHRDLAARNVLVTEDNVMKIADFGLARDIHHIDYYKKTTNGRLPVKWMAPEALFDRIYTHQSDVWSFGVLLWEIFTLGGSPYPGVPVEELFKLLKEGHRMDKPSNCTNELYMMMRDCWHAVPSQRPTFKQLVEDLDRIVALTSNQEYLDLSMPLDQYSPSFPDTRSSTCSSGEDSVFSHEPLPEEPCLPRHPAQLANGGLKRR

For orientation: Kd means the free concentration of one partner at which half of the binding sites on the other are occupied at equilibrium, for simple one-to-one binding. What is called IC50 is the concentration that gives 50% inhibition. In the case of `COc1cc2[nH]nc(-c3cnc(N4CC(C)(CNC(C)C)C4)c(C#N)c3)c2cc1O[C@H](C)c1c(Cl)cncc1Cl` [Example 50, (R)-5-(5-(1-(3,5-dichloropyridin-4-yl)ethoxy)-6-methoxy-1H-indazol-3-yl)-2-(3-((isopropylamino)methyl)-3-methylazetidin-1-yl)nicotinonitrile], the Kd on FGFR1, on FGFR2, on FGFR3, on FGFR3 (V555M) and on FGFR4 was 1 to 50 nM each time. Further, the IC50 in test [1], in test [2], in test [3] and in test [4] was 0.1 to 50 nM in each case.
On to `Cc1ncc(Cl)c([C@@H](C)Oc2ccc3[nH]nc(-c4cnc(N5CC(C)(NC6CCC6)C5)c(C#N)c4)c3c2)c1Cl` [Example 19, 2-[3-(cyclobutylamino)-3-methyl-azetidin-1-yl]-5-[5-[(1R)-1-(3,5-dichloro-2-methyl-4-pyridyl)ethoxy]-1H-indazol-3-yl]pyridine-3-carbonitrile], for which the Kd at FGFR1 is 50 to 300 nM; on FGFR2, 300 to 1000 nM; at FGFR3, 1 to 50 nM; at FGFR3 (V555M), 1 to 50 nM; at FGFR4, 1 to 50 nM. The IC50 in [1] was above 1000 nM; in test [2], 200 to 1000 nM; in test [3], 200 to 1000 nM; in [4], 0.1 to 50 nM.
On to `COc1cc2[nH]nc(-c3cnc(N4CC(C)(NCP(C)(C)=O)C4)c(C#N)c3)c2cc1O[C@H](C)c1c(Cl)cncc1Cl` [Example 329, 5-[5-[(1R)-1-(3,5-dichloro-4-pyridyl)ethoxy]-6-methoxy-1H-indazol-3-yl]-2-[3-(dimethyl-phosphoryl-methylamino)-3-methyl-azetidin-1-yl]pyridine-3-carbonitrile], for which the Kd on FGFR1, on FGFR2, at FGFR3, on FGFR3 (V555M) and on FGFR4 was 1 to 50 nM throughout. Moreover, the IC50 in [1] is 200 to 1000 nM; in [2], above 1000 nM; in [3] it was 50 to 200 nM; in test [4] it was 0.1 to 50 nM.
For the compound `C[C@@H](Oc1ccc2[nH]nc(-c3cnc(N4CC(C)(NC5CS(=O)(=O)C5)C4)c(C#N)c3)c2c1)c1c(Cl)cncc1Cl` [Example 7, (R)-5-(5-(1-(3,5-dichloropyridin-4-yl)ethoxy)-1H-indazol-3-yl)-2-(3-((1,1-dioxidothietan-3-yl)amino)-3-methylazetidin-1-yl)nicotinonitrile], the Kd at FGFR1 fell in the range of 50 to 300 nM; on FGFR2, 50 to 300 nM; at FGFR3, 1 to 50 nM; at FGFR3 (V555M), 1 to 50 nM; at FGFR4 it was 1 to 50 nM. Besides, the IC50 in [1] fell in the range of 50 to 200 nM; in test [2], 200 to 1000 nM; in test [3], 0.1 to 50 nM; in test [4] it was 0.1 to 50 nM.
On to `C[C@H](O)CNC1(C)CN(c2ncc(-c3n[nH]c4ccc(O[C@H](C)c5c(Cl)cncc5Cl)cc34)cc2C#N)C1` [Example 57, 5-(5-((R)-1-(3,5-dichloropyridin-4-yl)ethoxy)-1H-indazol-3-yl)-2-(3-(((S)-2-hydroxypropyl)amino)-3-methylazetidin-1-yl)nicotinonitrile], for which the Kd on FGFR1, on FGFR2, on FGFR3, on FGFR3 (V555M) and at FGFR4 was 1 to 50 nM in each case. Moreover, the IC50 in [1] lay in the range of 50 to 200 nM; in [2], 200 to 1000 nM; in [3], 0.1 to 50 nM; in test [4] it was 0.1 to 50 nM.
Consider `COc1cc2[nH]nc(-c3cnc(N4CC(C)(N5CCS(=O)(=O)CC5)C4)c(C#N)c3)c2cc1O[C@H](C)c1c(Cl)cncc1Cl` [Example 334, (R)-5-(5-(1-(3,5-dichloropyridin-4-yl)ethoxy)-6-methoxy-1H-indazol-3-yl)-2-(3-(1,1-dioxidothio-morpholino)-3-methylazetidin-1-yl)nicotinonitrile], for which the Kd at FGFR1, at FGFR2, at FGFR3, on FGFR3 (V555M) and on FGFR4 was 1 to 50 nM throughout. Also, the IC50 is 50 to 200 nM in test [1], 200 to 1000 nM in test [2], 0.1 to 50 nM in test [3] and 0.1 to 50 nM in test [4].
Consider `COc1cc2[nH]nc(-c3cnc(N4CC(C)(C)C4)nc3)c2cc1O[C@H](C)c1c(Cl)cncc1Cl` [Example 61, 5-[(1R)-1-(3,5-dichloro-4-pyridyl)ethoxy]-3-[2-(3,3-dimethylazetidin-1-yl)pyrimidin-5-yl]-6-methoxy-1H-indazole], for which the Kd at FGFR1, at FGFR2, on FGFR3, at FGFR3 (V555M) and at FGFR4 was 1 to 50 nM in each case. Besides, the IC50 in test [1] is 50 to 200 nM; in test [2] it was 50 to 200 nM; in test [3], 0.1 to 50 nM; in test [4], 0.1 to 50 nM.
With `C[C@@H](Oc1ccc2[nH]nc(-c3cnc(N4CC(C)(N5CC(C)(O)C5)C4)c(C#N)c3)c2c1)c1c(Cl)cncc1Cl` [Example 100, (R)-5-(5-(1-(3,5-dichloropyridin-4-yl)ethoxy)-1H-indazol-3-yl)-2-(3-hydroxy-3,3′-dimethyl-[1,3′-biazetidin]-1′-yl)nicotinonitrile], the Kd on FGFR1, on FGFR2, at FGFR3, on FGFR3 (V555M) and at FGFR4 was 1 to 50 nM throughout. The IC50 was in the range of 50 to 200 nM in [1], 50 to 200 nM in test [2], 0.1 to 50 nM in test [3] and 0.1 to 50 nM in [4].
In the case of `CC[C@@H](C)NC1(C)CN(c2ncc(-c3n[nH]c4cc(OC)c(O[C@H](C)c5c(Cl)cncc5Cl)cc34)cc2C#N)C1` [Example 145, 5-[5-[(1R)-1-(3,5-dichloro-4-pyridyl)ethoxy]-6-methoxy-1H-indazol-3-yl]-2-[3-methyl-3-[[(1R)-1-methylpropyl]amino]aze-tidin-1-yl]pyridine-3-carbonitrile], the Kd at FGFR1, on FGFR2, at FGFR3, at FGFR3 (V555M) and at FGFR4 was 1 to 50 nM throughout. The IC50 in [1] fell in the range of 50 to 200 nM; in [2] it was 50 to 200 nM; in [3] it was 0.1 to 50 nM; in test [4], 0.1 to 50 nM.
As to `C[C@@H](Oc1ccc2[nH]nc(-c3cnc(N4CC(C)(NCCO)C4)c(C#N)c3)c2c1)c1c(Cl)cncc1Cl` [Example 52, 5-[5-[(1R)-1-(3,5-dichloro-4-pyridyl)ethoxy]-1H-indazol-3-yl]-2-[3-(2-hydroxyethylamino)-3-methyl-azetidin-1-yl]pyridine-3-carbonitrile], the Kd on FGFR1, on FGFR2, at FGFR3, on FGFR3 (V555M) and on FGFR4 was 1 to 50 nM in each case. The IC50 in test [1] lay within 50 to 200 nM; in test [2], 200 to 1000 nM; in test [3] it was 50 to 200 nM; in [4], 0.1 to 50 nM.
With `COc1cc2[nH]nc(-c3cnc(N4CC(C)(N(C)C)C4)c(C#N)c3)c2cc1O[C@H](C)c1c(Cl)cncc1Cl` [Example 10, 5-[5-[(1R)-1-(3,5-dichloro-4-pyridyl)ethoxy]-6-methoxy-1H-indazol-3-yl]-2-[3-(dimethylamino)-3-methyl-azetidin-1-yl]pyridine-3-carbonitrile], the Kd at FGFR1, at FGFR2, on FGFR3, at FGFR3 (V555M) and at FGFR4 was 1 to 50 nM in each case. In addition, the IC50 in [1] was in the range of 50 to 200 nM; in [2], 50 to 200 nM; in test [3], 0.1 to 50 nM; in [4], 0.1 to 50 nM.
Consider `C[C@@H](Oc1ccc2[nH]nc(-c3cnc(N4CC(C)(N5CCC5)C4)c(C#N)c3)c2c1)c1c(Cl)cncc1Cl` [Example 28, (R)-5-(5-(1-(3,5-dichloropyridin-4-yl)ethoxy)-1H-indazol-3-yl)-2-(3′-methyl-[1,3′-biazetidin]-1′-yl)nicotinonitrile], for which the Kd at FGFR1, at FGFR2, on FGFR3, on FGFR3 (V555M) and on FGFR4 was 1 to 50 nM throughout. Further, the IC50 was 50 to 200 nM in test [1], 50 to 200 nM in test [2], 0.1 to 50 nM in [3] and 0.1 to 50 nM in [4].
